The source of these data is patent publication US8709420B2 (GlaxoSmithKline Intellectual Property Limited, priority 2010, dated 2014).

This assay concerns HIF-1 alpha. Kind of assay: Immunohistochemistry of xenograft tumors, HIF-1 alpha. It counts as in vivo, NOD/SCID mice. The conditions noted are these: NB12 xenograft model. As to the method: Formalin fixed tissues were paraffin embedded and sections cut at 7 um. […] The primary antibodies were anti-HIF-1 alpha (#NB100-131, Novus Biologicals, dilution 1:3000), HIF-2 alpha (#NB100-122, Novus Biologicals, dilution 1:100), Oct-4 (#2890S, Cell Signalling, dilution 1:100), von Willebrand factor (#A0082; DakoCytomation, Glostrup, Denmark). After the primary antibody treatment, all the slides were washed three times with PBS and incubated with broad spectrum poly-horse radish peroxidase (HRP) conjugate […] secondary antibody (87-9663, Invitrogen) for 1 h at room temperature. After washing three times with PBS, slides were stained with diaminobenzidine (DAB) and counterstained with hematoxylin. Microscopic images of six fields of high vascular density were digitally captured for vWF-stained slides, while for HIF-1 alpha, HIF-2 alpha and Oct-4 stained slides, the images of six randomly selected areas were captured. The pixel values for stained areas were quantified using ImageJ software. Tumor angiogenesis was quantified as the number of pixels of regions positive for vWF.

With `Cc1ccc(Nc2nccc(N(C)c3ccc4c(C)n(C)nc4c3)n2)cc1S(N)(=O)=O` [pazopanib, 5-[[4-[(2,3-dimethyl-2H-indazol-6-yl)methylamino]-2-pyrimidinyl]amino]-2-methylbenzenesulfonamide], the HIF-1 alpha expression entry is reported as “increase”.
